In PubChem BioAssay (NCI):
“And” between values parts separate entries of the source, which are not always exact repeats. Identical values can stand only once.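 Values below derive from 48-hour exposures of cells grown in 96-well plates, with endpoints linearly interpolated between the two concentrations bracketing the appropriate inhibition level. The concentration for 50% growth inhibition is given as GI50. At the TGI there is no net growth.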

What was measured:
Assay in all cases: NCI tumour cell line growth inhibition, 48 h
SR leukemia = tested on: SR leukemia
LOX IMVI melanoma = tested on: LOX IMVI melanoma
HCT-15 colon = tested on: HCT-15 colon
SF-295 CNS = tested on: SF-295 CNS
HCT-116 colon = tested on: HCT-116 colon
CCRF-CEM leukemia = tested on: CCRF-CEM leukemia
UACC-257 melanoma = tested on: UACC-257 melanoma
EKVX NSCLC = tested on: EKVX NSCLC
MOLT-4 leukemia = tested on: MOLT-4 leukemia
RPMI-8226 leukemia = tested on: RPMI-8226 leukemia

Row | Compound | TGI (SR leukemia) [µM] | TGI (LOX IMVI melanoma) [µM] | TGI (HCT-15 colon) [µM] | TGI (SF-295 CNS) [µM] | TGI (HCT-116 colon) [µM] | TGI (CCRF-CEM leukemia) [µM] | TGI (UACC-257 melanoma) [µM] | TGI (EKVX NSCLC) [µM] | TGI (MOLT-4 leukemia) [µM] | TGI (RPMI-8226 leukemia) [µM] | GI50 (SR leukemia) [µM] | GI50 (LOX IMVI melanoma) [µM] | GI50 (HCT-15 colon) [µM] | GI50 (SF-295 CNS) [µM] | GI50 (HCT-116 colon) [µM] | GI50 (CCRF-CEM leukemia) [µM] | GI50 (UACC-257 melanoma) [µM] | GI50 (EKVX NSCLC) [µM] | GI50 (MOLT-4 leukemia) [µM] | GI50 (RPMI-8226 leukemia)
1 | c1ccc(CN(Cn2cccn2)Cn2cccn2)nc1 | > 100 | > 100 | > 100 | > 100 | > 100 | > 100 | > 100 | > 100 | > 100 | 78.8 |  |  |  |  |  |  |  |  |  | 
2 | O=c1cnn2c(n1)sc1ccc3ccccc3c12 | > 100 | > 100 | > 100 | > 100 | > 100 | > 100 | > 100 | > 100 | > 100 | > 100 |  |  |  |  |  |  |  |  |  | 
3 | COC(=O)CCC/C=C\C[C@H]1C=CC(=O)/C1=C/C[C@@H](O)C/C=C\CC(F)(F)F | 5.44 | 0.668 | 3.29 | 5.82 | 2.75 | 5.27 | 7.82 | 14.6 | 4.22 | 7.9 | 0.384 | 0.243 | 1.07 | 2.51 | 1.26 | 0.345 | 2.54 | 4.04 | 0.773 | 1.26 µM
4 | CSc1nc2sc3cc(Cl)ccc3n2c(=N)c1C#N | > 100 | > 100 | > 100 | 16.1 | > 100 | > 100 | > 100 | > 100 | > 23.6 | > 100 | 17.6 | > 74.4 | > 100 | 2.21 | > 25.7 |  | 6.05 | 10.7 | 2.2 | > 80.6 µM
5 | NC1=N/C(=C2/CCNC(=O)c3[nH]c(Br)cc32)C(=O)N1 | 2.25 | > 62.1 | > 100 | > 100 | > 100 | > 100 | > 100 | > 100 | > 52.6 | > 100 |  |  |  |  |  |  |  |  |  | > 79.9 µM and 15.6 µM
6 | CC1OC(OCC2COC(O)(Oc3c(-c4ccc(O)c(O)c4)oc4cc(O)cc(O)c4c3=O)C(O)C2O)C(O)C(O)C1O (stereo not drawn) | > 100 | > 100 | > 100 | > 100 | > 100 | > 100 | > 100 | > 100 | > 100 | > 100 |  |  |  |  |  |  |  |  |  | 
7 | CCOC(=O)c1c(C(F)(F)F)n([O-])c2ccc(OC)cc2[n+]1=O | 6.74 | 25.4 | > 100 | 8.79 | 18.3 | 41.7 | > 100 | 60.5 | 17.5 | 33.7 | 2.37 | 5.22 | 3.88 | 2.61 | 4.13 | 4.3 | 3.69 | 3.67 | 4 | 3.49 µM
8 | CCC(=C/[C@H](C)C/C=C/C(C)=C/[C@@H](C)C(=O)[C@@H](C)[C@H](O)[C@@H](C)CC)/C=C/[C@H]1OC(=O)C=C[C@H]1C |  | 1.11 | 1.17 | 1.36 | 0.0102 | 9.07 | 1.55 | 11.6 |  | 0.0421 | < 0.01 | < 0.01 | < 0.01 | < 0.01 | < 0.01 | < 0.01 | < 0.01 | 0.288 | < 0.01 | < 0.01 µM
